# From paper PMC7854685, “Histone Parylation factor 1 contributes to the inhibition of PARP1 by cancer drugs” (Nature Communications, 2021)
# “And” between values parts separate entries of the source, which are not always exact repeats. Equal values may be shown once. “Also recorded” adds a separate entry of the source. Read-outs that look alike come from different tables or passages of the source. Marks after values point to notes of the source that are not given here.
# How the values were obtained:
# [1] = target: T1, PARP1 (Homo sapiens, UniProt P09874); assay: Release of fluorescently labeled p18mer DNA (fluorescence polarization) upon NAD+ addition, KI determination for PARPi, with or without HPF1; assay type: biochemical; set-up: Wild-type PARP1 and PARP2 were expressed and purified as previously described; made in house;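 note: PARP1 bound to fluorescein-tagged DNA and preincubated with inhibitor, then high NAD+ added, drop in fluorescence polarization tracked as the DNA dissociates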;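 for slope: slope of the inhibitor-concentration replot from which KI is derived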
# T1 sequence (P09874 whole entry): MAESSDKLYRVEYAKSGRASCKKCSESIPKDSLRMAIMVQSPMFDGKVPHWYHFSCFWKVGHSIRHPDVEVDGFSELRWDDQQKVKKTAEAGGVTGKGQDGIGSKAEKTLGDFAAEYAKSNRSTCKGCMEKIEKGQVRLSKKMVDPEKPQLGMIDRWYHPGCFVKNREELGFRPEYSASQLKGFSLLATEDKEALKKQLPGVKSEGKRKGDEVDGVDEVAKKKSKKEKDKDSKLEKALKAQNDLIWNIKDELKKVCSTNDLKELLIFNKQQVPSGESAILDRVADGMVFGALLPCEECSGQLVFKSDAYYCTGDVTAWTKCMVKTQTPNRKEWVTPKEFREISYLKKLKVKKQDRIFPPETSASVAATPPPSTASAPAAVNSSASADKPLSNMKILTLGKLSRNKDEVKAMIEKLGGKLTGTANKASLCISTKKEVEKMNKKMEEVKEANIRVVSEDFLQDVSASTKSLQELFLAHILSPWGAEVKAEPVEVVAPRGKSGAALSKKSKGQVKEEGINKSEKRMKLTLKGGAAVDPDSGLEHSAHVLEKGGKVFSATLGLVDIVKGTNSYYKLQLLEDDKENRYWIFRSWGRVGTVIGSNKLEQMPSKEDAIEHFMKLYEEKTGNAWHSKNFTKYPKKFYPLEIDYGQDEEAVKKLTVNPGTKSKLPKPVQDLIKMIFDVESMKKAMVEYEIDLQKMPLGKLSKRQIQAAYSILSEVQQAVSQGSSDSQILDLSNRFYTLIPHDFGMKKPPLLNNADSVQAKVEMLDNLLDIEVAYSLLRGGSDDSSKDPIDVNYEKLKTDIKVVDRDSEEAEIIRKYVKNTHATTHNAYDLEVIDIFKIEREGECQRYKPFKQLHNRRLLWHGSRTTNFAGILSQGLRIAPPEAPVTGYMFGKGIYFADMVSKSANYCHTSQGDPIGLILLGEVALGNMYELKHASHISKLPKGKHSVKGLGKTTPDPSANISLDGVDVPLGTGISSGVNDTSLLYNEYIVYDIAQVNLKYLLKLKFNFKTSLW
# Protocol: (§1) Starting with a complex of PARP1 or PARP2 bound to a PARPi and fluorescently labeled DNA, we monitor the loss of fluorescence polarization upon addition of high concentrations of NAD^+ (2 mM) as the labeled DNA is released from the PARylated PARPs (Fig. 1a).
# (§2) Intuitively one might expect the observed rate of release of labeled DNA to reflect the slow dissociation of PARPi from the complex (koff; see Fig. 1a). However, the kinetics are actually more complex as there is competition between the inhibitor re-binding (kon[I]) and the binding of, and reaction with, NAD^+ (k2[NAD^+]) (Fig. 1a).
# (§3) Next, 10 µL of PARP1 or PARP2 (10 nM) premixed with fluorescein labeled p18mer DNA (5 nM), was added to the various dilutions of PARPi and then incubated for 30 min to ensure complete association. Dissociation of labeled DNA was initiated by addition of 10 µL of NAD^+ (2 mM). […] We emphasize that the same correction is applied to the data for all PARPi. […] We can use the KI (derived from the slope of the replot, Fig. 2) and the minimal koff to calculate a minimal kon (KI = koff/kon, Supplementary Table 2).
# [2] = target: T2, PARP2 (Homo sapiens, UniProt Q9UGN5); assay: as above; assay type: biochemical
# T2 construct: Wild-type PARP1 and PARP2 were expressed and purified as previously described; made in house
# T2 sequence (Q9UGN5 whole entry): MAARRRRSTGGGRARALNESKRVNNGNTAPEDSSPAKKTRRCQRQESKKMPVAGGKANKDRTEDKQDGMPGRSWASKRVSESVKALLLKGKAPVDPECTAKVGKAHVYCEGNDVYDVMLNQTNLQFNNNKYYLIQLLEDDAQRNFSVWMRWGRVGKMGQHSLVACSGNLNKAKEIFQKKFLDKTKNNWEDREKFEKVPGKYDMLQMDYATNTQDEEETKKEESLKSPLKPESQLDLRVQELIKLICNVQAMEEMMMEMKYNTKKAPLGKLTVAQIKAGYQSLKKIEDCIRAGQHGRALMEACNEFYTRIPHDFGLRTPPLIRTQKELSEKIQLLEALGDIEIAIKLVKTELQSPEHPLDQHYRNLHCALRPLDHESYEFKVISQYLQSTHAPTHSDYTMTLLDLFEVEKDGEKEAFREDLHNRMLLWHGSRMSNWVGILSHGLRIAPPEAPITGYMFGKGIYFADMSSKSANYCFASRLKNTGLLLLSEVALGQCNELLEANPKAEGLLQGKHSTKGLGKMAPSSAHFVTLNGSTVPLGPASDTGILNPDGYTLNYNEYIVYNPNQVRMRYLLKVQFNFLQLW
# Protocol: as §1, §2, §3
# [3] = target: T1, PARP1; conditions: cited from earlier work
# [4] = target: T1, PARP1; assay: Fluorescence polarization association/dissociation of fl-Ola, with p18mer or Nuc165, with or without HPF1; assay type: binding; set-up: Wild-type PARP1 and PARP2 were expressed and purified as previously described; made in house; on rate (observed, single run): unit not given here;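 for Kd: fluorescence polarization read every minute over 1000 min, association and dissociation traces fitted to a single exponential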;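 for Off (individual replicates): fluorescence polarization read every minute over 1000 min, association and dissociation traces fitted to a single exponential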;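 for On (individual replicates): fluorescence polarization read every minute over 1000 min, association and dissociation traces fitted to a single exponential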;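 for On average: fluorescence polarization read every minute over 1000 min, association and dissociation traces fitted to a single exponential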
# [5] = target: T2, PARP2; assay: as above; assay type: binding; set-up: On (individual replicates): unit not given here
# [6] = PARP1, +HPF1, single experiment
# [7] = PARP1, without HPF1, single experiment
# [8] = PARP2, +HPF1, single experiment
# [9] = PARP2, without HPF1 (apo), single experiment
# 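Throughout, for slope: slope of the inhibitor-concentration replot from which KI is derived.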
smiles,measurement,setting,value
NC(=O)c1cccc2[nH]c(-c3ccc([C@@H]4CCCN4)cc3F)nc12 [A-966492],t1/2est average,"[1]; PARP1, +HPF1, average",2310 s
same,slope,[1]; [6],149 s/nM and 124 s/nM and 110 s/nM
same,t1/2est,[1]; [6],2340 s and 2250 s
same,t1/2est average,"[1]; PARP1, without HPF1, average",275 s
same,slope,[1]; [7],34.7 s/nM and 49.9 s/nM and 38.6 s/nM
same,t1/2est,[1]; [7],285 s and 270 s
COC1CCN(C(=O)c2cc(Cc3n[nH]c(=O)c4ccccc34)ccc2F)CC1 [AZD-2461],Fold (t-test),"[1]; PARP1, fold-difference in Ki caused by the addition of HPF1",2.9 ** fold
same,Ki,"[1]; PARP1 alone, p18mer DNA, 2 mM NAD+, read-out: Ki",2.2 ± 0.6 nM
COC1CCN(C(=O)c2cc(Cc3n[nH]c(=O)c4ccccc34)ccc2F)CC1 [AZD],koff (est) average,"[1]; PARP1, +HPF1, average",≥ 0.00058 s⁻¹
same,t1/2est average,"[1]; PARP1, +HPF1, average",1245 s
same,Ki,"[1]; PARP1, +HPF1, average, read-out: Ki average",0.78 nM
same,slope,[1]; [6],49 s/nM and 51 s/nM and 67.1 s/nM and 43 s/nM
same,t1/2est,[1]; [6],1020 s and 1200 s and 1740 s
same,Ki,"[1]; PARP1, +HPF1, single experiment, read-out: Ki",0.82 nM and 0.78 nM and 0.6 nM and 0.93 nM
same,kon ratio,"[1]; PARP1, ratio of averages with and without HPF1",1.75
same,Ki ratio,"[1]; PARP1, ratio of averages without and with HPF1",2.85
same,koff (est) average,"[1]; PARP1, without HPF1, average",≥ 0.00295 s⁻¹
same,t1/2est average,"[1]; PARP1, without HPF1, average",283 s
same,Ki,"[1]; PARP1, without HPF1, average, read-out: Ki average",2.23 nM
same,slope,[1]; [7],9.4 s/nM and 16.4 s/nM and 15.8 s/nM and 16.1 s/nM and 10.2 s/nM and 11.0 s/nM
same,Ki,"[1]; PARP1, without HPF1, single experiment, read-out: Ki",2.96 nM and 1.69 nM and 1.76 nM and 1.73 nM and 2.72 nM and 2.53 nM
NC(=O)c1cccc2cn(-c3ccc([C@@H]4CCCNC4)cc3)nc12 [Nira],t1/2est average,"[1]; PARP1, +HPF1, average",1700 s
same,slope,[1]; [6],60.3 s/nM and 61 s/nM and 66.7 s/nM
same,t1/2est,[1]; [6],1740 s and 1680 s
same,t1/2est average,"[1]; PARP1, without HPF1, average",522 s
same,t1/2est,[1]; [7],330 s and 660 s and 570 s and 480 s
O=C(c1cc(Cc2n[nH]c(=O)c3ccccc23)ccc1F)N1CCN(C(=O)C2CC2)CC1 [Olaparib],t1/2est,[2],250 s and 270 s and 180 s and 330 s and 240 s and 170 s
same,t1/2est average,[2],243 s and 245 s
CNCc1ccc(-c2[nH]c3cc(F)cc4c3c2CCNC4=O)cc1 [Rucaparib],PARP-trapping,[3],strong
same,t1/2est average,"[1]; PARP1, +HPF1, average",15000 s
same,t1/2est,[1]; [6],15000 s
same,t1/2est average,"[1]; PARP1, without HPF1, average",3450 s
Cn1ncnc1[C@H]1c2n[nH]c(=O)c3cc(F)cc(c23)N[C@@H]1c1ccc(F)cc1 [Tala],t1/2est average,"[1]; PARP1, +HPF1, average",>20000 s
same,t1/2est,[1]; [6],20000 s
same,t1/2est average,"[1]; PARP1, without HPF1, average",7303 s
same,slope,[1]; [7],1743 s/nM and 2697 s/nM and 2953 s/nM and 2451 s/nM
same,t1/2est,[1]; [7],8310 s and 5750 s and 7110 s and 8040 s
same,t1/2est average,"[2]; PARP2, +HPF1, average",550 s
same,slope,[2]; [8],91 s/nM and 65 s/nM
same,t1/2est,[2]; [8],660 s and 600 s and 390 s
same,slope,[2]; [9],180 s/nM and 131 s/nM and 191 s/nM
same,t1/2est,[2]; [9],450 s and 390 s
same,t1/2est average,"[2]; PARP2, without HPF1, average",410 s
C[C@]1(c2nc3c(C(N)=O)cccc3[nH]2)CCCN1 [Veliparib],PARP-trapping,[3],weak
CC1=CC(C)=[N+]2C1=Cc1ccc(CCC(=O)N3CCN(C(=O)c4cc(Cc5n[nH]c(=O)c6ccccc56)ccc4F)CC3)n1[B-]2(F)F [fl-Ola],off rate (single run),"[4]; PARP1, Nuc165",0.004215 per min and 0.004911 per min and 0.004071 per min and 0.00473 per min and 0.004639 per min
same,on rate average,"[4]; PARP1, Nuc165",2.17 per uM per sec
same,off rate (single run),"[4]; PARP1, Nuc165+HPF1",0.001434 per min and 0.001853 per min and 0.001613 per min and 0.002575 per min and 0.002863 per min
same,"on rate (observed, single run)","[4]; PARP1, Nuc165+HPF1",0.03904 and 0.05638 and 0.0311 and 0.04561 and 0.04092 and 0.03175 and 0.05953
same,on rate average,"[4]; PARP1, Nuc165+HPF1",4.35 per uM per sec
same,off rate (single run),"[4]; PARP1, buffer",0.001297 per min and 0.001272 per min and 0.001404 per min and 0.001129 per min
same,"on rate (observed, single run)","[4]; PARP1, buffer",0.002763 and 0.003297 and 0.003517 and 0.004488 and 0.003954 and 0.005011 and 0.004368 and 0.00415
same,on rate average,"[4]; PARP1, buffer",0.39 per uM per sec
same,off rate (single run),"[4]; PARP1, p18mer",0.005934 per min and 0.004771 per min and 0.005583 per min and 0.004919 per min and 0.005548 per min
same,on rate average,"[4]; PARP1, p18mer",1.27 per uM per sec
same,off rate (single run),"[4]; PARP1, p18mer+HPF1",0.002334 per min and 0.002172 per min and 0.002936 per min and 0.003134 per min and 0.003344 per min
same,"on rate (observed, single run)","[4]; PARP1, p18mer+HPF1",0.02205 and 0.01731 and 0.01849 and 0.01852 and 0.01515 and 0.01847 and 0.02629
same,on rate average,"[4]; PARP1, p18mer+HPF1",1.95 per uM per sec
same,Off (individual replicates),"[5]; PARP2, Nuc147",0.000128 per sec and 0.000098 per sec and 0.000096 per sec and 0.000087 per sec
same,On (individual replicates),"[5]; PARP2, Nuc147",0.06047 and 0.0458 and 0.0509 and 0.06962
same,On average,"[5]; PARP2, Nuc147",5.7 per uM per sec
same,Off (individual replicates),"[5]; PARP2, Nuc147/HPF1",0.000060 per sec and 0.000066 per sec and 0.000047 per sec
same,On (individual replicates),"[5]; PARP2, Nuc147/HPF1",0.02342 and 0.02572 and 0.02231 and 0.02096
same,On average,"[5]; PARP2, Nuc147/HPF1",2.3 per uM per sec
same,Kd,"[5]; PARP2, Nuc165",0.018 ± 0.0046 nM
same,Kd,"[5]; PARP2, Nuc165/HPF1",0.0249 ± 0.0047 nM
same,Kd,"[5]; PARP2, p18mer",0.0141 ± 0.0039 nM
same,Off (individual replicates),"[5]; PARP2, p18mer",0.000127 per sec and 0.000133 per sec and 0.000111 per sec and 0.000117 per sec
same,Off average,"[5]; PARP2, p18mer",0.44 per hr
same,On (individual replicates),"[5]; PARP2, p18mer",0.06673 and 0.08057 and 0.1117
same,On average,"[5]; PARP2, p18mer",8.6 per uM per sec
same,Kd,"[5]; PARP2, p18mer/HPF1",0.0205 ± 0.0048 nM
same,Off (individual replicates),"[5]; PARP2, p18mer/HPF1",0.000135 per sec and 0.000112 per sec and 0.000093 per sec
same,On (individual replicates),"[5]; PARP2, p18mer/HPF1",0.06627 and 0.04795 and 0.05623 and 0.05079
same,On average,"[5]; PARP2, p18mer/HPF1",5.5 per uM per sec
NC(=O)c1ccc(I)c([N+](=O)[O-])c1 [iniparib],Inhibition of DNA release from PARP1,"[1]; PARP1, 20-2500 nM",not an inhibitor of PARP1; also recorded: does not have this effect
